Measurements from patent US20210369699A1, “TREATMENT OF LUPUS ERYTHEMATOSUS USING S-HYDROXYCHLOROQUINE” (Genovate Biotechnology Co. Ltd., priority 2020, published 2021).
Read-outs that look alike come from different tables or passages of the source.

Legend:
[1] = system: IL-17 production in human peripheral blood mononuclear cells (PBMC); assay: IL-17 production in PMA/ionomycin-stimulated PBMC (ELISA); assay type: cell-based; conditions: for IL-17 pg/mL (mean ± SD): n = 3; for inhibition at 25 µM / inhibition at 50 µM / inhibition at 100 µM / inhibition at 5 µM: PBMC; for inhibition at 25 µM / inhibition at 50 µM / inhibition at 100 µM / (%) inhibition / inhibition at 5 µM: IL-17 synthesis
Experimental: Hydroxychloroquine (HCQ) and its pure optical isomers S-hydroxychloroquine (S-HCQ; enantiomeric excess of 99.0%) and R-hydroxychloroquine (R-HCQ; enantiomeric excess of 98.3%) were tested in an in vitro pharmacodynamic assay to determine their efficacy at inhibiting interleukin 17 (IL-17) production in human peripheral blood mononuclear cells (PBMC) stimulated with phorbol myristate acetate (PMA) and ionomycin.
Cells were cultured at 37° C. with 5% CO2 in RPMI-1640 medium (Gibco, 11875-093) supplemented with 10% Fetal Bovine Serum (Gibco, 10437-028), 10 mM HEPES (Gibco, 15630-080), and 100 U/mL Penicillin/Streptomycin (Gibco, 15140-122).
PBMC were seeded at a density of 10^6 cells/ml in each well of a 96-well round bottom microplate (Corning, 7007) then stimulated with 25 ng/ml PMA and 1 μg/ml ionomycin in the absence and presence of 25 μM, 50 μM, or 100 μM HCQ, S-HCQ or R-HCQ each dissolved in ethanol. The final concentration of ethanol in the culture medium was 0.75%. PBMC treated with 5 μM methylprednisolone served as a positive control.
After incubation for 48 or 72 hours, the cell culture supernatants were collected and stored at −80° C. until analysis. The levels of IL-17 induced by PMA/ionomycin-stimulated PBMC were analyzed using human IL-17 Quantikine ELISA Kit (R & D system, D1700) according to product information.

[2] = system: MRL/lpr mice; assay: Blood urea nitrogen and creatinine concentration in plasma of MRL/lpr mice; assay type: in vivo; conditions: end of study; for creatinine concentration in plasma: FIG. 4B
Experimental: (§1) See Furukawa et al., 1996, J. Invest. Dermatol. 107; 95-100; Furukawa et al., 2009, Autoimmun. Rev. 8:495-499; and Shimomatsu et al., 2016, Mod. Rheumatol. 26:744-748. […] Animals were given water and food ad-libitum.
(§2) Dosing volumes were kept consistent at 10 mL/kg.
Plasma was prepared from blood samples collected at the end of the study. They were analyzed for blood urea nitrogen (BUN) level and creatinine concentration using a FUJI DRI-CHEM 4000i instrument as directed by the manufacturer. Elevated BUN and creatinine levels indicate compromised kidney function.

[3] = target: T1, human ether-a-go-go-related gene (hERG) voltage-gated potassium channel (Homo sapiens, UniProt Q12809); assay: In vitro cardiotoxicity assay: hERG patch-clamp in HEK-293 cells
Experimental: (§3) A conventional patch-clamp technique was used to determine inhibitory effects on hERG. Human embryonic kidney cells (HEK-293) stably transfected with human hERG cDNA were plated on collagen-coated 35-mm cell culture dishes at low density for 1-7 days. For single-cell patch-clamp recording, the intracellular solution contained 130 mM KCl, 10 mM NaCl, 1 mM MgCl2, 10 mM EGTA, 5 mM MgATP, and 10 mM HEPES (pH adjusted to 7.2 with KOH). The extracellular solution contained acellular Solution (mM): 137 mM NaCl, 4 mM KCl, 1.8 mM CaCl2, 1 mM MgCl2, 10 mM D(+)-Glucose, and 10 mM HEPES (pH adjusted to 7.4 with NaOH). All measurements were performed at room temperature.
(§4) After cell capture, a pulse protocol was implemented that involved stepping from a holding potential of −80 mV to +40 mV for 4 s to inactivate hERG channels. The membrane voltage was then stepped back to −50 mV for 4 s to evoke a tail current prior to returning to the holding potential. This sequence was repeated with an inter-pulse interval of 20 s. […] Evoked peak tail current amplitudes were continuously monitored throughout the experiment. Each compound was applied from low to high concentrations sequentially to the same cell for five minutes.
(§5) The percent inhibition of hERG channel was calculated by comparing the tail current amplitude before and after application of the compound, the current difference being normalized to control. The amplitude of the hERG peak tail current was calculated by measuring the tail current on stepping to −50 mV. The current was measured before and after each compound addition. […] Percent inhibition values were used to calculate the IC50 for each tested compound.

[4] = Body weight of treated MRL/lpr mice
Experimental: Pharmacodynamics of HCQ, S-HCQ, and R-HCQ was examined in MRL/lpr mice, a model for human cutaneous lupus erythematosus. […] Eight-week old MRL/lpr mice, were purchased from Jackson Laboratory (ME, USA) and maintained on a 12 h light and dark cycle with constant temperature and humidity control. Animals were given water and food ad-libitum.
Groups of 14-15 mice were treated starting at the age of −15 weeks old with vehicle (10% EtOH in PBS), with low dose (20 mg/kg) or high dose (40 mg/kg) HCQ, S-HCQ, or R-HCQ. Mice in the vehicle and low dose groups were treated orally once daily for 16 weeks from age 15 to 31 weeks. Mice in the high dose groups were treated orally once daily for 14 weeks from age 15 to 29 weeks. Dosing volumes were kept consistent at 10 mL/kg.
MRL/lpr mice treated with vehicle or with 20 mg/kg HCQ, S-HCQ, or R-HCQ were weighed once per week from day 0 (initial day of dosing) to day 111. Animals in the 40 mg/kg groups were weighed daily from day 0 to day 90.

[5] = target: T1, human ether-a-go-go-related gene (hERG) voltage-gated potassium channel
Experimental: as §3, §4, §5

[6] = system: MRL/lpr mice; assay: Skin lesions in treated MRL/lpr mice; assay type: in vivo; conditions: for mean score of skin lesions versus time (onset of skin inflammation and lesions): HCQ and R-HCQ, FIG. 3A
Experimental: as §1, §2
Inflammation and skin lesions in the MRL/lpr mice were scored twice per week from the regions of dorsal neck, forehead, snout, and ears using a previously described scoring scale. See Keil et al., 2016, Arthritis Res. Ther. 18:243. Briefly, animals with no skin lesions were scored as 0, those having minimal hair loss with redness and a few scattered lesions were scored as 1, and those with redness, scabbing, and hair loss with a small area of involvement were scored as 2.
The mean score of skin lesions in each group from Day 68 to Day 111 for vehicle and low dose groups and from Day 68 to Day 90 for high dose groups after first dosing were plotted and are shown in FIG. 3A.
The data was reanalyzed by comparing the average skin lesion scores for each treatment over the entire test period. The skin lesion scores from day 68 to day 111 after initial dosing were averaged for the vehicle and the low dose groups and compared, as shown in FIG. 3B. The skin lesion scores from day 68 to day 90 after initial dosing were averaged for the vehicle and the high dose groups and compared, as shown in FIG. 3C.

[7] = system: MRL/lpr mice; assay: Survival of treated MRL/lpr mice; assay type: in vivo; conditions: observed 70-80 days
Experimental: as §1, §2
The number of live and dead mice was recorded each day beginning from the first dosing day at age 15 weeks.

[8] = 25 μM, 48 h, PMA/ionomycin-stimulated PBMC
[9] = 25 μM, 72 h, PMA/ionomycin-stimulated PBMC
[10] = 50 μM, 48 h, PMA/ionomycin-stimulated PBMC
[11] = 50 μM, 72 h, PMA/ionomycin-stimulated PBMC
[12] = 100 μM, 48 h, PMA/ionomycin-stimulated PBMC
[13] = 100 μM, 72 h, PMA/ionomycin-stimulated PBMC

T1 sequence (Q12809 whole entry): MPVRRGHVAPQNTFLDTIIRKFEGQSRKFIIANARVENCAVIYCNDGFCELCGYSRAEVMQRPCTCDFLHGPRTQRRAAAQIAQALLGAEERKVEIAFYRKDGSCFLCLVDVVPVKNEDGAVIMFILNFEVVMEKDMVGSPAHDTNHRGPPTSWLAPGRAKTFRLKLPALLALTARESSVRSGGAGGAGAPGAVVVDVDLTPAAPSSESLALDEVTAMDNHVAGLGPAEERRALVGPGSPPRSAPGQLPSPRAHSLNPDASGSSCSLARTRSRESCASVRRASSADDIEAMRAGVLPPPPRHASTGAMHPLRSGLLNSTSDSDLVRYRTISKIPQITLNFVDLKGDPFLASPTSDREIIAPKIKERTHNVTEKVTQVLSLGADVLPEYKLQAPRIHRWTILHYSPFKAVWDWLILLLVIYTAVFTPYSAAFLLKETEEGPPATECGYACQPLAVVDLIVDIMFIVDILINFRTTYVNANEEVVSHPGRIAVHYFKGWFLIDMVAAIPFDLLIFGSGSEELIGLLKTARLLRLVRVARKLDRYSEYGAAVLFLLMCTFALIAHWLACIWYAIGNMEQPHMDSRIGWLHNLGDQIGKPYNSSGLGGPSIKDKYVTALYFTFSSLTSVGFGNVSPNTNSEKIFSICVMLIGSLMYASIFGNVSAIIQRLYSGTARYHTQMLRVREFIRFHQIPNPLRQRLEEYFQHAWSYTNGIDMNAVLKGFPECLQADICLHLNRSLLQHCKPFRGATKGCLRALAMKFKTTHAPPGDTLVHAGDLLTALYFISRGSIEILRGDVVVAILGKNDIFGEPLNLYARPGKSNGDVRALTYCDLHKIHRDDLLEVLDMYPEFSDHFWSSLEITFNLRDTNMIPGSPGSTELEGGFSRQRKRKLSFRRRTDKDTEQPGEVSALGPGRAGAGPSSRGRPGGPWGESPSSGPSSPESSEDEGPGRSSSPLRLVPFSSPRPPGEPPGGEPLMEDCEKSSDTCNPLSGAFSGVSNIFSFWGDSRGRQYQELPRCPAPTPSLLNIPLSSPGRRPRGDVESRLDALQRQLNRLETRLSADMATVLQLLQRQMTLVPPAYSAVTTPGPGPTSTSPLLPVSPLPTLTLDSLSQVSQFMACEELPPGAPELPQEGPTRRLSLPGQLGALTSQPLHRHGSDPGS

With `CCN(CCO)CCCC(C)Nc1ccnc2cc(Cl)ccc12` (racemic) [HCQ, Hydroxychloroquine] the “IL-17 pg/mL (mean ± SD)” value [1, 8] was 480.4 ± 13.1 pg/mL, the “IL-17 pg/mL (mean ± SD)” value [1, 9] was 502.4 ± 20.7 pg/mL and the “IL-17 pg/mL (mean ± SD)” value [1, 10] was 344.8 ± 12.2 pg/mL. For the same molecule, the “IL-17 pg/mL (mean ± SD)” value [1, 11] was 341.1 ± 47.4 pg/mL, the “IL-17 pg/mL (mean ± SD)” value [1, 12] was 214.5 ± 15.3 pg/mL and the “IL-17 pg/mL (mean ± SD)” value [1, 13] was 203.0 ± 10.8 pg/mL. It also gave an inhibition at 25 µM ([1]; Homo sapiens, 25 μM, 48 h) of 3%, an inhibition at 25 µM ([1]; Homo sapiens, 25 μM, 72 h) of 23% and an inhibition at 50 µM ([1]; Homo sapiens, 50 μM, 48 h) of 30%. The inhibition at 50 µM ([1]; Homo sapiens, 50 μM, 72 h) was 48%, the inhibition at 100 µM ([1]; Homo sapiens, 100 μM, 48 h) was 57% and the inhibition at 100 µM ([1]; Homo sapiens, 100 μM, 72 h) was 69%. The IC50 ([1]; Homo sapiens, PMA/ionomycin-stimulated PBMC, 48 h or 72 h, read-out: absolute IC50 of IL-17 inhibition) was 50 to 100 µM, the “creatinine concentration in plasma” value ([2]; 20 mg/kg orally once daily) was “lower” and the IC50 [3] was 4.84 µM. For the same molecule, the “mean body weight vs vehicle” value ([4]; 20 mg/kg orally once daily, day 0 to day 111, FIG. 1A) was “No obvious difference in mean body weight” and the “mean body weight vs vehicle” value ([4]; 40 mg/kg orally once daily, day 0 to day 90, FIG. 1B) was “No obvious difference in mean body weight”.
In the case of `CCN(CCO)CCCC(C)Nc1ccnc2cc(Cl)ccc12` (stereo not drawn) [R-HCQ, R-hydroxychloroquine], the “(%) inhibition” value ([1]; 25 μM, 48 h) is reported as 5%, the “IL-17 pg/mL (mean ± SD)” value [1, 8] is reported as 471.6 ± 32.9 pg/mL and the “(%) inhibition” value ([1]; 25 μM, 72 h) is reported as 13%. For the same molecule, the “IL-17 pg/mL (mean ± SD)” value [1, 9] was 564.0 ± 72.9 pg/mL, the “(%) inhibition” value ([1]; 50 μM, 48 h) was 42% and the “IL-17 pg/mL (mean ± SD)” value [1, 10] was 289.4 ± 34.7 pg/mL. For the same molecule, the “(%) inhibition” value ([1]; 50 μM, 72 h) was 50%, the “IL-17 pg/mL (mean ± SD)” value [1, 11] was 326.8 ± 33.6 pg/mL and the “(%) inhibition” value ([1]; 100 μM, 48 h) was 69%. The “IL-17 pg/mL (mean ± SD)” value [1, 12] was 154.0 ± 18.1 pg/mL, the “(%) inhibition” value ([1]; 100 μM, 72 h) was 72% and the “IL-17 pg/mL (mean ± SD)” value [1, 13] was 179.2 ± 31.8 pg/mL. The “creatinine concentration in plasma” value ([2]; 20 mg/kg orally once daily) was “lower”, the “creatinine concentration in plasma” value ([2]; 40 mg/kg orally once daily) was “lower” and the IC50 [5] was 4.2 µM.
In the case of `CCN(CCO)CCC[C@H](C)Nc1ccnc2cc(Cl)ccc12` [S-HCQ, S-hydroxychloroquine], the “(%) inhibition” value ([1]; 25 μM, 48 h) is reported as 13%, the “IL-17 pg/mL (mean ± SD)” value [1, 8] is reported as 432.6 ± 28.9 pg/mL and the “(%) inhibition” value ([1]; 25 μM, 72 h) is reported as 25%. For the same molecule, the “IL-17 pg/mL (mean ± SD)” value [1, 9] was 486.5 ± 8.9 pg/mL, the “(%) inhibition” value ([1]; 50 μM, 48 h) was 41% and the “IL-17 pg/mL (mean ± SD)” value [1, 10] was 292.0 ± 21.6 pg/mL. The “(%) inhibition” value ([1]; 50 μM, 72 h) was 45%, the “IL-17 pg/mL (mean ± SD)” value [1, 11] was 354.6 ± 52.5 pg/mL and the “(%) inhibition” value ([1]; 100 μM, 48 h) was 57%. For the same molecule, the “IL-17 pg/mL (mean ± SD)” value [1, 12] was 215.0 ± 24.6 pg/mL, the “(%) inhibition” value ([1]; 100 μM, 72 h) was 62% and the “IL-17 pg/mL (mean ± SD)” value [1, 13] was 248.9 ± 38.9 pg/mL. The “creatinine concentration in plasma” value ([2]; 40 mg/kg orally once daily) was “most significant decrease in creatinine concentration”, the “blood urea nitrogen (BUN) level in plasma” value ([2]; 40 mg/kg orally once daily, compared to any other treatments, FIG. 4A) was “significantly lower” and the “average skin lesion score over the test period vs vehicle” value ([6]; 20 mg/kg (low dose), day 68 to day 111, t-test p<0.005, FIG. 3B) was “significantly reduced skin lesion scores”. The “mean score of skin lesions versus time (onset of skin inflammation and lesions)” value ([6]; 20 mg/kg orally once daily, Day 68 to Day 111, compared to vehicle) was “superior in reducing the onset of skin inflammation and lesions”, the “average skin lesion score over the test period vs vehicle” value ([6]; 40 mg/kg (high dose), day 68 to day 90, t-test p<0.005, FIG. 3C) was “significantly reduced skin lesion scores” and the “mean score of skin lesions versus time (onset of skin inflammation and lesions)” value ([6]; 40 mg/kg orally once daily, Day 68 to Day 90, compared to vehicle) was “superior in reducing the onset of skin inflammation and lesions”. For the same molecule, the “fractional survival compared to vehicle, HCQ and R-HCQ” value ([7]; 20 mg/kg orally once daily, FIG. 2A) was “higher fractional survival”, the “fractional survival compared to vehicle, HCQ and R-HCQ” value ([7]; 40 mg/kg orally once daily, FIG. 2B) was “higher fractional survival” and the IC50 [5] was 11 µM.
With `C[C@H]1C[C@@H]2[C@H]([C@@H](O)C[C@@]3(C)[C@H]2CC[C@]3(O)C(=O)CO)[C@@]2(C)C=CC(=O)C=C12` [methylprednisolone] the “IL-17 pg/mL (mean ± SD)” value ([1]; 5 μM, 48 h, PMA/ionomycin-stimulated PBMC) was 266.7 ± 15.3 pg/mL, the “IL-17 pg/mL (mean ± SD)” value ([1]; 5 μM, 72 h, PMA/ionomycin-stimulated PBMC) was 282.0 ± 37.6 pg/mL and the inhibition at 5 µM ([1]; Homo sapiens, 5 μM, 48 h) was 46%. The inhibition at 5 µM ([1]; Homo sapiens, 5 μM, 72 h) was 57%.
